Test results from paper PMC12141164, “Phase-1 study of vamotinib (PF-114), a 3rd generation BCR::ABL1 tyrosine kinase-inhibitor, in chronic myeloid leukaemia” (Annals of Hematology, 2025).
Values joined by “and” are separate entries in the source; they are usually repeats but may differ in a detail not shown here. Equal values may be shown once.

System: BCR::ABL1 positive CML
Assay: Phase-1 study: haematological, cytogenetic and molecular response
Assay type: in vivo, human
Protocol: Haematological response evaluations were done on the first day of each cycle of therapy; molecular response on the first day of cycles 1, 2, 4, 7, 10, 13 and then every three months; cytogenetic response – at screening and on the first days of cycles 4, 7, 13 and every three months thereafter, provided that there was no major molecular response.
Cytogenetic response was assessed by differential staining of chromosomes and if uninformative, by fluorescent in situ hybridization (FISH). Mutations in BCR::ABL1 were assessed by Sanger and next generation sequencing (NGS). Sanger sequencing was done at each center; NGS analyses were done in the laboratory of Prof. Susan Branford, University of Adelaide. Discordances were resolved as described in Table S2. Molecular response was assessed using the ratio of BCR::ABL1 to ABL1 measured according to the IS [9].

Cc1ccc(C(=O)Nc2ccc(CN3CCN(C)CC3)c(C(F)(F)F)c2)cc1C#Cc1nnc2ccccn12 [vamotinib]
CCyR (Advanced phase CML (N = 5)): none and 0/5 | MCyR (Advanced phase CML (N = 5)): none and 0/5 | MMR (Advanced phase CML (N = 5)): 0/5 | subjects with BCR::ABL1^T315I who responded (BCR::ABL1^T315I): 5 of 16 subjects | CCyR achieved at treatment (Cohort 1 50 mg N=3): 0 no. (%) | CCyR by 6 months (Cohort 1 50 mg N=3): 0 no. (%) | CCyR by 12 months (Cohort 1 50 mg N=3): 0 no. (%) | CHR achieved at treatment (Cohort 1 50 mg N=3): 1 (50) no. (%) | CHR by the 3 months (Cohort 1 50 mg N=3): 0 no. (%) | CHR by the 6th months (Cohort 1 50 mg N=3): 0 no. (%) | CHR by the 12th months (Cohort 1 50 mg N=3): 1 (50) no. (%) | MCyR achieved at treatment (Cohort 1 50 mg N=3): 0 no. (%) | MCyR by 6 months (Cohort 1 50 mg N=3): 0 no. (%) | MCyR by 12 months (Cohort 1 50 mg N=3): 0 no. (%) | MMR achieved at treatment (Cohort 1 50 mg N=3): 0 no. (%) | MMR by 6 months (Cohort 1 50 mg N=3): 0 no. (%) | MMR by 12 months (Cohort 1 50 mg N=3): 0 no. (%) | MMR by 24 months (Cohort 1 50 mg N=3): 0 no. (%) | Subjects with loss of CCyR (Cohort 1 50 mg N=3): 0 no. (%) | Subjects with loss of CHR (Cohort 1 50 mg N=3): 0 no. (%) | Subjects with loss of MCyR (Cohort 1 50 mg N=3): 0 no. (%) | Subjects with loss of MMR (Cohort 1 50 mg N=3): 0 no. (%) | CCyR achieved at treatment (Cohort 2 100 mg N=3): 1 (33) no. (%) | CCyR by 6 months (Cohort 2 100 mg N=3): 0 no. (%) | CCyR by 12 months (Cohort 2 100 mg N=3): 0 no. (%) | CHR achieved at treatment (Cohort 2 100 mg N=3): 0 no. (%) | CHR by the 3 months (Cohort 2 100 mg N=3): 0 no. (%) | CHR by the 6th months (Cohort 2 100 mg N=3): 0 no. (%) | CHR by the 12th months (Cohort 2 100 mg N=3): 0 no. (%) | MCyR by 6 months (Cohort 2 100 mg N=3): 1 (33) no. (%) | MCyR by 12 months (Cohort 2 100 mg N=3): 1 (33) no. (%) | MMR achieved at treatment (Cohort 2 100 mg N=3): 1 (33) no. (%) | MMR by 6 months (Cohort 2 100 mg N=3): 0 no. (%) | MMR by 12 months (Cohort 2 100 mg N=3): 0 no. (%) | MMR by 24 months (Cohort 2 100 mg N=3): 1 (33) no. (%) | Subjects with loss of CCyR (Cohort 2 100 mg N=3): 0 no. (%) | Subjects with loss of CHR (Cohort 2 100 mg N=3): 0 no. (%) | Subjects with loss of MCyR (Cohort 2 100 mg N=3): 0 no. (%) | Subjects with loss of MMR (Cohort 2 100 mg N=3): 0 no. (%) | CCyR achieved at treatment (Cohort 3 200 mg N=11): 3 (30) no. (%) | CCyR by 6 months (Cohort 3 200 mg N=11): 2 (20) no. (%) | CCyR by 12 months (Cohort 3 200 mg N=11): 2 (20) no. (%) | CHR achieved at treatment (Cohort 3 200 mg N=11): 2 (40) no. (%) | CHR by the 3 months (Cohort 3 200 mg N=11): 2 (40) no. (%) | CHR by the 6th months (Cohort 3 200 mg N=11): 2 (40) no. (%) | CHR by the 12th months (Cohort 3 200 mg N=11): 2 (40) no. (%) | MCyR achieved at treatment (Cohort 3 200 mg N=11): 4 (50) no. (%) | MCyR by 6 months (Cohort 3 200 mg N=11): 3 (38) no. (%) | MCyR by 12 months (Cohort 3 200 mg N=11): 3 (38) no. (%) | MMR achieved at treatment (Cohort 3 200 mg N=11): 2 (18) no. (%) | MMR by 6 months (Cohort 3 200 mg N=11): 1 (9) no. (%) | MMR by 12 months (Cohort 3 200 mg N=11): 1 (9) no. (%) | MMR by 24 months (Cohort 3 200 mg N=11): 2 (18) no. (%) | Subjects with loss of CCyR (Cohort 3 200 mg N=11): 1 (33) no. (%) | Subjects with loss of CHR (Cohort 3 200 mg N=11): 2 (100) no. (%) | Subjects with loss of MCyR (Cohort 3 200 mg N=11): 1 (25) no. (%) | Subjects with loss of MMR (Cohort 3 200 mg N=11): 0 no. (%) | CCyR achieved at treatment (Cohort 4 400 mg N=12): 1 (8) no. (%) | CCyR by 6 months (Cohort 4 400 mg N=12): 1 (8) no. (%) | CCyR by 12 months (Cohort 4 400 mg N=12): 1 (8) no. (%) | CHR achieved at treatment (Cohort 4 400 mg N=12): 4 (57) no. (%) | CHR by the 3 months (Cohort 4 400 mg N=12): 2 (29) no. (%) | CHR by the 6th months (Cohort 4 400 mg N=12): 2 (29) no. (%) | CHR by the 12th months (Cohort 4 400 mg N=12): 4 (57) no. (%) | MCyR achieved at treatment (Cohort 4 400 mg N=12): 2 (19) no. (%) | MCyR by 6 months (Cohort 4 400 mg N=12): 2 (19) no. (%) | MCyR by 12 months (Cohort 4 400 mg N=12): 2 (19) no. (%) | MMR achieved at treatment (Cohort 4 400 mg N=12): 0 no. (%) | MMR by 6 months (Cohort 4 400 mg N=12): 0 no. (%) | MMR by 12 months (Cohort 4 400 mg N=12): 0 no. (%) | MMR by 24 months (Cohort 4 400 mg N=12): 0 no. (%) | Subjects with loss of CCyR (Cohort 4 400 mg N=12): 0 no. (%) | Subjects with loss of CHR (Cohort 4 400 mg N=12): 4 (100) no. (%) | Subjects with loss of MCyR (Cohort 4 400 mg N=12): 0 no. (%) | Subjects with loss of MMR (Cohort 4 400 mg N=12): 0 no. (%) | CCyR achieved at treatment (Cohort 5 500 mg N=3): 0 no. (%) | CCyR by 6 months (Cohort 5 500 mg N=3): 0 no. (%) | CCyR by 12 months (Cohort 5 500 mg N=3): 0 no. (%) | CHR achieved at treatment (Cohort 5 500 mg N=3): 0 no. (%) | CHR by the 3 months (Cohort 5 500 mg N=3): 0 no. (%) | CHR by the 6th months (Cohort 5 500 mg N=3): 0 no. (%) | CHR by the 12th months (Cohort 5 500 mg N=3): 0 no. (%) | MCyR achieved at treatment (Cohort 5 500 mg N=3): 0 no. (%) | MCyR by 6 months (Cohort 5 500 mg N=3): 0 no. (%) | MCyR by 12 months (Cohort 5 500 mg N=3): 0 no. (%) | MMR achieved at treatment (Cohort 5 500 mg N=3): 0 no. (%) | MMR by 6 months (Cohort 5 500 mg N=3): 0 no. (%) | MMR by 12 months (Cohort 5 500 mg N=3): 0 no. (%) | MMR by 24 months (Cohort 5 500 mg N=3): 0 no. (%) | Subjects with loss of CCyR (Cohort 5 500 mg N=3): 0 no. (%) | Subjects with loss of CHR (Cohort 5 500 mg N=3): 0 no. (%)
